Assay results published in patent US5750530A, “Pharmaceutical diketopiperazine compounds” (Xenova Limited, priority 1994, dated 1998).
Counter-ions that a name gives are not always drawn.

Biological target: PAI-1 (Homo sapiens, UniProt P05121)
Assay: biochemical
Assay type: biochemical
Settings: for IC50: PAI chromogenic substrate assay
Method: The present compounds have been tested in a PAI functional assay. In this assay, a compound is incubated with PAI-1 prior to addition to the tPA assay system. Inhibition of PAI-1 results in the production of plasmin from plasminogen. In turn, plasmin cleaves the chromogenic substrate S2251 (Kabi Vitrum) producing pNA (p-nitroaniline) which is detected spectrophotometrically at 405 nm (K. Nilsson et al, Fibrinolysis (1987) 1, 163-168).
The present compounds were tested in a PAI chromogenic substrate assay. In the assay (K. Nilsson, Fibrinolysis (1987) 1, 163-168) each compound was incubated with PAI-1 prior to addition to the tPA assay system. […] In turn, the plasmin cleaved the chromogenic substrate S2251 (Kabi-Vitrum) producing pNA (p-nitroaniline) which was detected spectrophotometrically at 405 nm.
The degrees of inhibition observed in the chromogenic substrate assay at various concentrations, or the IC50 values, for each compound are presented in Table 1.

Chain of PAI-1 (P05121 24-402): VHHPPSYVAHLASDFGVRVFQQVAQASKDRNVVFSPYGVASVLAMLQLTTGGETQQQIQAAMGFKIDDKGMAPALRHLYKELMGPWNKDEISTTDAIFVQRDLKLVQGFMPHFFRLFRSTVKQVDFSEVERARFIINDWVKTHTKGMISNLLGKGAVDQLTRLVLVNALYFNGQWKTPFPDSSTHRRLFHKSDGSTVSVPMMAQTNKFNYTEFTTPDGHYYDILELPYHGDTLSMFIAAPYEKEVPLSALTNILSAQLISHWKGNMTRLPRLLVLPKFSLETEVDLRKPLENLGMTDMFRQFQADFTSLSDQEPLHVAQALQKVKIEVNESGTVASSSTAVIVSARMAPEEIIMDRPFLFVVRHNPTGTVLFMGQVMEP

Row | SMILES | % Inhibition (5 μm) [%] | % Inhibition (20 μm) [%] | % Inhibition (100 μm) [%] | IC50 [µM]
1 | CN(C)CCSc1ccc(/C=c2\[nH]c(=O)/c(=C/c3ccoc3)[nH]c2=O)cc1 [Compound 5129.HCl, (3Z,6Z)-6-(4-(2-Dimethylaminoethylthio)benzylidene)-3-(3-furylmethylene)-2,5-piperazinedione] | 51 | 68 | 50 | 4.5
2 | COc1ccc2ccccc2c1/C=c1\[nH]c(=O)/c(=C/c2ccc(SCCN(C)C)s2)[nH]c1=O [Compound 5499, (3Z,6Z)-3-(5-(2-Dimethylaminoethylthio)-2-thienyl)methylene-6-(2-methoxy-1-naphthyl)methylene-2,5-piperazinedione] | 2 | 61 |  | 11.8
3 | CN(C)CCSc1ccc(/C=c2\[nH]c(=O)/c(=C/c3cccc(C#N)c3)[nH]c2=O)cc1 [Compound 5476, (3Z,6Z)-3-(3-Cyanobenzylidene)-6-(4-(2-dimethylaminoethylthio)benzylidene)-2,5-piperazinedione] | 21 | 38 |  | 
4 | CN(C)CCSc1ccc(/C=c2\[nH]c(=O)/c(=C/c3ccc(OCc4ccccc4)cc3)[nH]c2=O)s1 [Compound 5482.HCl, (3Z,6Z)-6-(4-Benzyloxybenzylidene)-3-(5-(2-dimethylaminoethylthio)-2-thienyl)methylene-2,5-piperazinedione] | 13 | 59 |  | 
5 | CN(C)CCSc1ccc(/C=c2\[nH]c(=O)/c(=C/c3ccc([N+](=O)[O-])cc3)[nH]c2=O)cc1 [Compound 5461, (3Z,6Z)-3-(4-(2-Dimethylaminoethylthio)benzylidene)-6-(4-nitrobenzylidene)-2,5-piperazinedione] | 1 | 44 |  | 
6 | CN(C)CCSc1ccc(/C=c2\[nH]c(=O)/c(=C/c3cccc(OCc4ccccc4)c3)[nH]c2=O)cc1 [Compound 5486, (3Z,6Z)-3-(3-Benzyloxybenzylidene)-6-(4-(2-dimethylaminoethylthio)benzylidene)-2,5-piperazinedione] | 13 | 55 |  | 20
7 | COc1ccc(/C=c2\[nH]c(=O)/c(=C/c3ccc(SCCN(C)C)s3)[nH]c2=O)cc1 [Compound 5464, (3Z,6Z)-3-(5-(2-Dimethylaminoethylthio)-2-thienyl)methylene-6-(4-methoxybenzylidene)-2,5-piperazinedione] | 19 | 58 |  | 10.5
8 | Cc1cccc(/C=c2\[nH]c(=O)/c(=C/c3ccc(SCCN(C)C)cc3)[nH]c2=O)c1 [Compound 5439.HCl, (3Z,6Z)-6-(4-(2-Dimethylaminoethylthio)benzylidene)-3-(3-methylbenzylidene)-2,5-piperazinedione] | 6 | 35 |  | 17
9 | CN(C)CCSc1ccc(/C=c2\[nH]c(=O)/c(=C/c3ccc4ccccc4n3)[nH]c2=O)s1 [Compound 5308.HCl, (3Z,6Z)-6-(5-(2-Dimethylaminoethylthio)-2-thienyl)methylene-3-(2-quinolylmethylene)-2,5-piperazinedione] |  | 93 | 93 | 4.5
10 | CN(C)CCSc1ccc(/C=c2\[nH]c(=O)/c(=C/c3ccc(Br)cc3)[nH]c2=O)cc1 [Compound 5480, (3Z,6Z)-3-(4-Bromobenzylidene)-6-(4-(2-dimethylaminoethylthio)benzylidene)-2,5-piperazinedione] | 53 | 74 |  | 5.2
11 | CN(C)CCSc1ccc(/C=c2\[nH]c(=O)/c(=C/c3cccc(C(F)(F)F)c3)[nH]c2=O)cc1 [Compound 5423.HCl, (3Z,6Z)-6-(4-(2-Dimethylaminoethylthio)benzylidene)-3-(3-trifluoromethylbenzylidene)-2,5-piperazinedione] | 2 | 35 |  | 20
12 | CN(C)CCSc1ccc(/C=c2\[nH]c(=O)/c(=C/c3ccnc4ccccc34)[nH]c2=O)s1 [Compound 5307.HCl, (3Z,6Z)-6-(5-(2-Dimethylaminoethylthio)-2-thienyl)methylene-3-(4-quinolylmethylene)-2,5-piperazinedione] |  |  |  | 18
13 | CC(=O)Nc1ccc(/C=c2\[nH]c(=O)/c(=C/c3ccc(SCCN(C)C)s3)[nH]c2=O)cc1 [Compound 5300.HCl, (3Z,6Z)-6-(4-Acetamidobenzylidene)-3-(5-(2-dimethylaminoethylthio)-2-thienyl)methylene-2,5-piperazinedione] | 10 | 41 | 26 | 
14 | CN(C)CCSc1sc(/C=c2\[nH]c(=O)/c(=C/c3ccccc3)[nH]c2=O)cc1[N+](=O)[O-] [Compound 5403, (3Z,6Z)-6-Benzylidene-3-(5-(2-dimethylaminoethylthio)-4-nitro-2-thienyl)methylene-2,5-piperazinedione] | 26 | 52 |  | 20
15 | CN(C)CCSc1ccc(/C=c2\[nH]c(=O)/c(=C/c3ccc(N(C)C)cc3)[nH]c2=O)cc1 [Compound 5424, (3Z,6Z)-3-(4-Dimethylaminobenzylidene)-6-(4-(2-dimethylaminoethylthio)benzylidene)-2,5-piperazinedione] | 6 | 23 |  | 13.7
16 | CN(C)CCSc1ccc(/C=c2\[nH]c(=O)/c(=C/c3cn(C)c4ccccc34)[nH]c2=O)cc1 [Compound 5497, (3Z,6Z)-6-(4-(2-Dimethylaminoethylthio)benzylidene)-3-(1-methyl-3-indolyl)methylene-2,5-piperazinedione] | 17 | 72 |  | 11
17 | CN(C)CCSc1ccc(/C=c2\[nH]c(=O)/c(=C/c3ccc(Br)cc3)[nH]c2=O)cc1 [Compound 5480.HCl, (3Z,6Z)-3-(4-Bromobenzylidene)-6-(4-(2-dimethylaminoethylthio)benzylidene)-2,5-piperazinedione] | 52 | 76 |  | 
18 | CN(C)CCSc1ccc(/C=c2\[nH]c(=O)/c(=C/c3c4ccccc4cc4ccccc34)[nH]c2=O)s1 [Compound 5498, (3Z,6Z)-6-(9-Anthrylmethylene)-3-(5-(2-dimethylaminoethylthio)-2-thienyl)methylene-2,5-piperazinedione] | 15 | 52 |  | 20
19 | CN(C)CCSc1ccc(/C=c2\[nH]c(=O)/c(=C/c3cccc(C(F)(F)F)c3)[nH]c2=O)s1 [Compound 5315, (3Z,6Z)-3-(5-(2-Dimethylaminoethylthio)-2-thienyl)methylene-6-(3-trifluoromethylbenzylidene)-2,5-piperazinedione] |  |  |  | 20
20 | CN(C)CCSc1ccc(/C=c2\[nH]c(=O)/c(=C/c3ccc(C(F)(F)F)cc3)[nH]c2=O)s1 [Compound 5293, (3Z,6Z)-3-(5-(2-Dimethylaminoethylthio)-2-thienyl)methylene-6-(4-trifluoromethylbenzylidene)-2,5-piperazinedione] |  |  |  | 20
21 | CN(C)CCSc1ccc(/C=c2\[nH]c(=O)/c(=C/c3ccc(OCc4ccccc4)cc3)[nH]c2=O)cc1 [Compound 5481.HCl, (3Z,6Z)-3-(4-Benzyloxybenzylidene)-6-(4-(2-dimethylaminoethylthio)benzylidene)-2,5-piperazinedione] | 10 | 55 |  | 
22 | COc1cc(/C=c2\[nH]c(=O)/c(=C/c3ccc(SCCN(C)C)cc3)[nH]c2=O)ccc1OCc1ccc([N+](=O)[O-])cc1 [Compound 5490, (3Z,6Z)-6-(4-(2-Dimethylaminoethylthio)benzylidene)-3-(3-methoxy-4-(4-nitrobenzyloxy)benzylidene)-2,5-piperazinedione] | 6 | 48 |  | 20
23 | Cc1cccc(/C=c2\[nH]c(=O)/c(=C/c3ccc(SCCN(C)C)cc3)[nH]c2=O)c1 [Compound 5439, (3Z,6Z)-6-(4-(2-Dimethylaminoethylthio)benzylidene)-3-(3-methylbenzylidene)-2,5-piperazinedione] | 5 | 46 |  | 15
24 | CN(C)CCSc1ccc(/C=c2\[nH]c(=O)/c(=C/c3cn(C)c4ccccc34)[nH]c2=O)cc1 [Compound 5497.HCl, (3Z,6Z)-6-(4-(2-Dimethylaminoethylthio)benzylidene)-3-(1-methyl-3-indolyl)methylene-2,5-piperazinedione] | 12 | 59 |  | 11.5
